“And” between values parts separate entries of the source, which are not always exact repeats. Equal entries are not always repeated.
What was measured:
Format in all cases: cell-based
320 non-olfactory GPCRs [1] = biological target: 320 non-olfactory GPCRs (Homo sapiens, UniProt P41143); settings: receptor OPRD1; replicate values, Fig_4g
320 non-olfactory GPCRs [2] = biological target: T1, 320 non-olfactory GPCRs (Homo sapiens, UniProt P51679)
T1 construct: expressed in transfected cells; host or cells: HTLA cells

320 non-olfactory GPCRs [3] = biological target: T2, 320 non-olfactory GPCRs (Homo sapiens, UniProt Q86SQ6)
T2 construct: expressed in transfected cells; host or cells: HTLA cells

320 non-olfactory GPCRs [4] = biological target: T3, 320 non-olfactory GPCRs (Homo sapiens, UniProt Q96AM1); settings: receptor MRGPRF; replicate values, Fig_4g
T3 construct: expressed in transfected cells; host or cells: HTLA cells
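Wherever Fold of Basal is given: compound tested at 1 µM final concentration.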
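Wherever GPCRome agonism screen response is given: fold over basal response of each receptor without drug.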

T2 sequence (Q86SQ6 whole entry): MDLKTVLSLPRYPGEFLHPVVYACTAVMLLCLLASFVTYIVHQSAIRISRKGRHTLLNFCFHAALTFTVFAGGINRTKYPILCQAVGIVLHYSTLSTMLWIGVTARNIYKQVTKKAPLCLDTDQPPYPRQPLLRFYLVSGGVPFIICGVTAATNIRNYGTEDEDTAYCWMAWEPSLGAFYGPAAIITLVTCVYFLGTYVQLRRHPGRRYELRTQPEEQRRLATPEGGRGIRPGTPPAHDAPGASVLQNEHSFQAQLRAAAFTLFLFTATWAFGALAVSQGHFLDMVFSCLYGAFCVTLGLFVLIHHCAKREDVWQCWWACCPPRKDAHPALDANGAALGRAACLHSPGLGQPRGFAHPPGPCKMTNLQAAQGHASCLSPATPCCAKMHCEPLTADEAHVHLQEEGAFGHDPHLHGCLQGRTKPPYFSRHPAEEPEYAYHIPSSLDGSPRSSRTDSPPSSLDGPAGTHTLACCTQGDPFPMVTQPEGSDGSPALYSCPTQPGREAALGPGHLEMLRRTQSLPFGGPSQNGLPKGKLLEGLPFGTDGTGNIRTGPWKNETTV
T3 sequence (Q96AM1 whole entry): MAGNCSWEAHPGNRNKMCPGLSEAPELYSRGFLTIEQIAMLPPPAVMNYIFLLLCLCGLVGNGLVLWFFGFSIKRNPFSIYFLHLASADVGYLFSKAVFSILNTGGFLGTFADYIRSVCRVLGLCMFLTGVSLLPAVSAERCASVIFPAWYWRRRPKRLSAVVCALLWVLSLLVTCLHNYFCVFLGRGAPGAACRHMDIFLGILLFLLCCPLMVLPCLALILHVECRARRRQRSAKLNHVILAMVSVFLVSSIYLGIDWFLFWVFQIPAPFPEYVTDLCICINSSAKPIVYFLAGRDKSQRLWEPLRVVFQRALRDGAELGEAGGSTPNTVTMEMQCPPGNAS
320 non-olfactory GPCRs (Homo sapiens, UniProt P41143), sequence (P41143 whole entry): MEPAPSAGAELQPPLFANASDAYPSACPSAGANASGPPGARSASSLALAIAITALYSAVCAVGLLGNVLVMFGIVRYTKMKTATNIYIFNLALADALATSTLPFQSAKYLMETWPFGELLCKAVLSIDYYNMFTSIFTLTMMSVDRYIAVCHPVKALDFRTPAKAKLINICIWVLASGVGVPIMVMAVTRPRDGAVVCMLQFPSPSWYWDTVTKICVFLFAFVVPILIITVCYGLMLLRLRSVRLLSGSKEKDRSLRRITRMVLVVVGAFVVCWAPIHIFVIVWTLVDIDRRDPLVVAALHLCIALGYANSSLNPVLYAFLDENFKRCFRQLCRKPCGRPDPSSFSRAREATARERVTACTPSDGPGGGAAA
T1 sequence (P51679 whole entry): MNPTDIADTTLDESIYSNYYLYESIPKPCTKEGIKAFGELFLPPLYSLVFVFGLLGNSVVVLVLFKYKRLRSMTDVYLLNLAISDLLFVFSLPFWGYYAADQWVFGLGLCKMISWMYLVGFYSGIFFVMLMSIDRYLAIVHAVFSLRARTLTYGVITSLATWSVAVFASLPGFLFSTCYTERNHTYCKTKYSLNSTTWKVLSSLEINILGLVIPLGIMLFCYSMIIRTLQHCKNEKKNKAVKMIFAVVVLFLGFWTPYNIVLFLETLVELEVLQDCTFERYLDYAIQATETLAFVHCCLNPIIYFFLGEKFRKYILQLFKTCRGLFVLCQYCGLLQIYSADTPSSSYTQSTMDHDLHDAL

For `CCOc1cccc2cc(C(C)NCC3(O)CCCCC3)oc12` (stereo not shown) [O4LE6], the “GPCRome agonism screen response” value (320 non-olfactory GPCRs [1]) was 1.015 and 0.7396 and 0.6746 and 0.921, the “Fold of Basal” value (320 non-olfactory GPCRs [2]) was 1.013 and 0.8978 and 0.7406 and 0.6452 and the “Fold of Basal” value (320 non-olfactory GPCRs [3]) was 0.9894 and 1.559 and 1.433 and 1.372. The “GPCRome agonism screen response” value (320 non-olfactory GPCRs [4]) was 0.9496 and 0.9687 and 0.9252 and 0.5763.

Reference: paper PMC7044277 (Nature Communications, 2020)
